Source: patent US20250161311A1, “SMALL MOLECULE DIRECTED URINARY BLADDER TISSUE REGENERATION” (Northwestern University, priority 2022, published 2025)
Where “and” joins values, the source holds several entries; their conditions need not be identical. Equal values may be shown once.

Assays:
[1] = In vitro release profile of SR1 coupled to POC scaffolds, measured by spectroscopy; assay type: physicochemical
Description: SR1 was coupled to POC (poly 1,8 octane diol co-citrate) scaffolds and its in vitro release profile was measured by spectroscopy, based upon the aromatic ring structures contained within SR1 (FIG. 5A). […] For pilot in vivo studies, rats underwent an ˜70% cystectomy followed by augmentation with POC or POC/SR1 (1 mM SR1). POC animals were instilled with saline once at the beginning of the study and all animals were euthanized at 4 weeks post-augmentation. […] Therefore, the inventor concludes that coupling of SR1 to a scaffold, e.g., a solid support, is an effective means of delivery of SR1 to subjects in need thereof.

[2] = system: regenerated bladder tissue; assay: Regenerated bladder tissue muscle content (Trichrome) and urothelium width after cystectomy and POC scaffold augmentation; assay type: in vivo, nude rats; conditions: 10 weeks post-augmentation, means±SE
Description: SR1 Induces Bladder Tissue Regeneration in vivo—In the following in vivo studies, nude rats underwent an approximate 60-70% bladder cystectomy and were augmented with a POC scaffold and then: 1) instilled with saline (Saline); 2) instilled with 300 nM SR1 (SR1:1×/week for 2 weeks); or 3) seeded with human MSC/CD34+HSCs (Cell-Seeded). Animals were sacrificed 10 weeks post-augmentation. The inventors have developed, characterized, and successfully utilized CBBs (POC) in bladder regenerative settings over the last 10 years. The inventors' established human MSC/CD34+HSC seeded POC scaffold bladder augmentation model was utilized in this study to directly compare specific regenerative bladder biological metrics against SR1 treated animals to determine whether SR1 could be used in lieu of MSCs and CD34+HSCs for bladder tissue regeneration. Muscle to collagen ratios are indicative of overall bladder tissue regeneration. […] Normal bladder tissue has an approximate 1:1 to muscle to collagen. There was no statistical difference with regards to muscle regeneration between the two groups. […] This included abnormal voiding, incontinence and subsequent infection, bladder distension, ureteral or renal dysfunction, and […]. […]

rat bladders = assay: Rat bladder urodynamic studies (UDS); assay type: in vivo, nude rats; conditions: for bladder compliance: compliant >60%; for leak point pressure (LPP): normal rat ~40
Description: SR1 Induces Bladder Tissue Regeneration in vivo—In the following in vivo studies, nude rats underwent an approximate 60-70% bladder cystectomy and were augmented with a POC scaffold and then: 1) instilled with saline (Saline); 2) instilled with 300 nM SR1 (SR1:1×/week for 2 weeks); or 3) seeded with human MSC/CD34+HSCs (Cell-Seeded). Animals were sacrificed 10 weeks post-augmentation. The inventors have developed, characterized, and successfully utilized CBBs (POC) in bladder regenerative settings over the last 10 years. The inventors' established human MSC/CD34+HSC seeded POC scaffold bladder augmentation model was utilized in this study to directly compare specific regenerative bladder biological metrics against SR1 treated animals to determine whether SR1 could be used in lieu of MSCs and CD34+HSCs for bladder tissue regeneration. Rat Bladder Urodynamic Studies (UDS) Rat bladders were filled with saline until a bladder contraction occurred (pre- and 10 weeks post-augmentation). Bladder pressures rose during the filling until bladder contractions occurred at intravesical pressures of 25-40 cm H2O. Saline instilled animals led to a slight decrease in voiding pressures and decreased bladder compliance (FIG. 4A). SR1 instilled animals led to a decrease in intravesical pressures during voiding from 40 to 25 cm H2O (pre-augmentation to post-augmentation, respectively) with increased bladder compliance. […] With regards to leak point pressures (LPP); Saline, SR1 and Cell-Seeded groups (pre/post aug) were: 39.49±1.35/46.48±2.42; 39.66±0.81/37.1±1.47; 38.6±1.41/35.5±2.40 cm H2O, respectively. Compliance values for the same groups were: 68.77±2.49/39.3±8.55; 69.57±1.95/72.38±3.13; 46.23±12.9/89.59±1.32 percent, respectively. Normal LPP for rat is ˜40 cm H2O and compliant bladders are defined at >60%. Percent bladder capacity at 10 weeks was also measured (FIG. 4B).

primary human UCs = assay: SR1 treatment of primary human urothelial cells (UCs) in vitro, AhR/Ki-67 co-staining and manual counting; assay type: cell-based; conditions: for peak number of nAhR+UCs: D7, means±SE
Description: SR1 Treatment of UCs in vitro Equivalent numbers of primary human UCs were treated once with SR1 (150 nM, 200 nM, 250 nM, or untreated) and allowed to grow in culture for 13 days. […] An assortment of organ specific stem cells initially maintain a high nucleus/cytoplasm ratio which gradually decreases as the cell differentiates.

[3] = system: regenerated bladder tissue; assay: Bladder tissue vascularization and peripheral nerve regeneration in vivo (IF staining); parameters: species or system nude rats; conditions: 10 weeks post-augmentation
Description: SR1 Induces Bladder Tissue Regeneration in vivo—In the following in vivo studies, nude rats underwent an approximate 60-70% bladder cystectomy and were augmented with a POC scaffold and then: 1) instilled with saline (Saline); 2) instilled with 300 nM SR1 (SR1:1×/week for 2 weeks); or 3) seeded with human MSC/CD34+HSCs (Cell-Seeded). Animals were sacrificed 10 weeks post-augmentation. The inventors have developed, characterized, and successfully utilized CBBs (POC) in bladder regenerative settings over the last 10 years. The inventors' established human MSC/CD34+HSC seeded POC scaffold bladder augmentation model was utilized in this study to directly compare specific regenerative bladder biological metrics against SR1 treated animals to determine whether SR1 could be used in lieu of MSCs and CD34+HSCs for bladder tissue regeneration. Bladder instillation of SR1 promoted vascularization of augmented bladders along the periphery and core of grafts. […] The level of tissue vascularization may be increased by changing the concentration of SR1 instilled and/or the dosing regimen.

CC(C)n1cnc2c(NCCc3ccc(O)cc3)nc(-c3csc4ccccc34)nc21 [SR1, stemregenin 1]
release profile of SR1 from POC scaffolds ([1]; 1 or 2 mM starting concentrations, over 30 days, compared to POC scaffolds in saline): gradual release | cumulative release of SR1 from POC scaffolds, fold higher with 2 mM SR1 ([1]; 30 day time point, 2 mM versus 1 mM starting concentration): ~1.4 × | muscle content of regenerated bladder tissue ([2]; SR1 300 nM instilled 1×/week for 2 weeks): ~50% and 47.00±1.81% | urothelium width ([2]; unmanipulated rats 50-70 μm): 52.98±2.55 μm | intravesical pressure during voiding (rat bladders; 10 weeks post-augmentation): 25 cm H2O | bladder compliance (rat bladders; 10 weeks post-augmentation): 72.38±3.13% | leak point pressure (LPP) (rat bladders; 10 weeks post-augmentation): 37.1±1.47 cm H2O | intravesical pressure during voiding (rat bladders; pre-augmentation (baseline)): 40 cm H2O | bladder compliance (rat bladders; pre-augmentation (baseline)): 69.57±1.95% | leak point pressure (LPP) (rat bladders; pre-augmentation (baseline)): 39.66±0.81 cm H2O | peak number of nAhR+UCs (primary human UCs; 150 nM SR1, treated once): 159.75±8.44 cells | peak number of nAhR+UCs (primary human UCs; 200 nM SR1, treated once): 310.75±28.73 cells | peak number of nAhR+UCs (primary human UCs; 250 nM SR1, treated once): 342.75±20.97 cells | expansion of nAhR+/Ki-67+UCs compared to untreated (primary human UCs; D7): ~6 × | UCs with higher nucleus/cytoplasm ratios (primary human UCs; nAhR+UCs, D7, 200 nM): modest increase | vascularization of regenerated bladder tissue ([3]; means±SE): 3.60±0.24% | peripheral nerve regeneration (βIII tubulin IF staining) ([3]; core and throughout the graft): abundance of peripheral nerve regeneration
